Measured values published in the supplement of paper PMC13386468.

Key:
Assay in all cases: IC50 for competition of protein binding to Kinobeads
Details in all cases: assay detail: Kinobeads competition in P. falciparum blood-stage lysate
[1] = target: UniProt C6KT76
[2] = target: UniProt Q8IE18
[3] = target: UniProt Q8I1Z8
[4] = target: UniProt Q8I5A6
[5] = target: UniProt Q8IL53
[6] = target: UniProt C6KT13
[7] = target: UniProt Q8I5H4
[8] = target: UniProt Q8ILW8
[9] = target: UniProt Q8IIA4
[10] = target: UniProt O97248
[11] = target: UniProt Q8I305
[12] = target: UniProt Q8IIW6
[13] = target: UniProt Q8II72
[14] = target: UniProt Q8ILQ8
[15] = target: UniProt Q8II92
[16] = target: UniProt C6KSR5
[17] = target: UniProt Q8IIB4
[18] = target: UniProt Q8ILZ7
[19] = target: UniProt Q8IAK9
[20] = target: UniProt Q8IM38
[21] = target: UniProt Q8IE82
[22] = target: UniProt Q8IDY6
[23] = target: UniProt Q8IJP3
[24] = target: UniProt Q8IKQ7
[25] = target: UniProt Q7KQL9
Sequence of UniProt Q7KQL9 (Q7KQL9 whole entry): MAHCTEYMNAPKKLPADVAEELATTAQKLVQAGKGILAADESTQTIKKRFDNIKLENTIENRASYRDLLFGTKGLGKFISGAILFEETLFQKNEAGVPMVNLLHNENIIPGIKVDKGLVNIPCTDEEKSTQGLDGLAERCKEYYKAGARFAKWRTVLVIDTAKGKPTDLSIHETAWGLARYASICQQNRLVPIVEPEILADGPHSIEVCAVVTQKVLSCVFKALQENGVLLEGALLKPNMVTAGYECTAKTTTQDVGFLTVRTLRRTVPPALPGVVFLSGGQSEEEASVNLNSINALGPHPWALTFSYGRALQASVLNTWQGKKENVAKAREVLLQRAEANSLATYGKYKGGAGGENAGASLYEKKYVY

[26] = target: UniProt Q8IDN4
Sequence of UniProt Q8IDN4 (Q8IDN4 whole entry): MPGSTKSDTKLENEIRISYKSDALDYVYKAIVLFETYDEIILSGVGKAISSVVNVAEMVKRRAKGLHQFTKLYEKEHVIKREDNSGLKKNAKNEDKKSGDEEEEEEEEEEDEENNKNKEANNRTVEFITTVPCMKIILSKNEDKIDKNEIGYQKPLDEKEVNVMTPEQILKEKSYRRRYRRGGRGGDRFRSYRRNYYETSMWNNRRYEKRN

[27] = target: UniProt Q8IC16
[28] = target: UniProt Q8IIL0
Sequence of UniProt Q8IIL0 (Q8IIL0 whole entry): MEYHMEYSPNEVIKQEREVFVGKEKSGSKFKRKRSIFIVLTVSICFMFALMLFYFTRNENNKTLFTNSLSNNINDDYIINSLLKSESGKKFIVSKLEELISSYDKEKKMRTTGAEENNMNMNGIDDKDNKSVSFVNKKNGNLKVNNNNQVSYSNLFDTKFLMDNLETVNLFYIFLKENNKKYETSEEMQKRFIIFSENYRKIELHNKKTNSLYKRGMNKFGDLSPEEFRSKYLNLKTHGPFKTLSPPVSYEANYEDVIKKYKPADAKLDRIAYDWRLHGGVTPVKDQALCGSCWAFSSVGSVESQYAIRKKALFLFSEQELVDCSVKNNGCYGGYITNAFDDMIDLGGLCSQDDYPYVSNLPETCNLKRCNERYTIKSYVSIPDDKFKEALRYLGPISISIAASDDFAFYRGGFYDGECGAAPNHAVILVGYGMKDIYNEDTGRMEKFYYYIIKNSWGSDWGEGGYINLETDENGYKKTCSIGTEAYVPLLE

[29] = target: UniProt Q8II42
[30] = target: UniProt Q8I231
[31] = target: UniProt Q7KQL5
Sequence of UniProt Q7KQL5 (Q7KQL5 whole entry): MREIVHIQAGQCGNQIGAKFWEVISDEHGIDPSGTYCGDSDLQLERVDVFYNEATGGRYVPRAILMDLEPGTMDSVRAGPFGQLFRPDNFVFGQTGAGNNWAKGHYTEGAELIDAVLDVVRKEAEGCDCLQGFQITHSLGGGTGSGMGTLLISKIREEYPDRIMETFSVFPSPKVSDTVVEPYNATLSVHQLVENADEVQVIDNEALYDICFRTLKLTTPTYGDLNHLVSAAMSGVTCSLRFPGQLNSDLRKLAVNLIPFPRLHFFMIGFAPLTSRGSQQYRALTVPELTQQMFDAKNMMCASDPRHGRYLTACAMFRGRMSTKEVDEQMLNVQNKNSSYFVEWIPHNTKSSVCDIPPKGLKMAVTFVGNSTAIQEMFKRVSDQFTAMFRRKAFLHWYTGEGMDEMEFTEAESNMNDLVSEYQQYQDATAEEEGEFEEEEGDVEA

[32] = target: UniProt Q8IJZ3
[33] = target: UniProt Q76NM6
Sequence of UniProt Q76NM6 (Q76NM6 whole entry): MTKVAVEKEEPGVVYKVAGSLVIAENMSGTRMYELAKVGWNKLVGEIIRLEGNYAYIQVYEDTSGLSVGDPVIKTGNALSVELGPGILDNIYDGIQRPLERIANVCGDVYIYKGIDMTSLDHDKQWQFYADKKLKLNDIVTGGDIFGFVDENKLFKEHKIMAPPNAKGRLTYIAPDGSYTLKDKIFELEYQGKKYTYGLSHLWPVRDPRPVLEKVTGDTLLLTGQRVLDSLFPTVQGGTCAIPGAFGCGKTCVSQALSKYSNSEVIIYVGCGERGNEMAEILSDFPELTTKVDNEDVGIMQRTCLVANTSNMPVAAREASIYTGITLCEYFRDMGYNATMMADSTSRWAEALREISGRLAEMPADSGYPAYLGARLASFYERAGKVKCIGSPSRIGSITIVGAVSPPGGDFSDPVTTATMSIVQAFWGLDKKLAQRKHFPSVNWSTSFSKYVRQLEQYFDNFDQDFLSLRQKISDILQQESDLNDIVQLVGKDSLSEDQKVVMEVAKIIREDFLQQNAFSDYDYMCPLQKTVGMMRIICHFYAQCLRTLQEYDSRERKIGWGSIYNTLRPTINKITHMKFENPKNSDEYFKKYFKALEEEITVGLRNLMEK

[34] = target: UniProt Q8I5C5
[35] = target: UniProt Q8ILX1
[36] = target: UniProt Q8I2B1
[37] = target: UniProt Q8IIR9
[38] = target: UniProt Q8I274
[39] = target: UniProt Q8I603
[40] = target: UniProt Q8IAL6
[41] = target: UniProt Q8I2I8
[42] = target: UniProt Q8I4X0
Sequence of UniProt Q8I4X0 (Q8I4X0 whole entry): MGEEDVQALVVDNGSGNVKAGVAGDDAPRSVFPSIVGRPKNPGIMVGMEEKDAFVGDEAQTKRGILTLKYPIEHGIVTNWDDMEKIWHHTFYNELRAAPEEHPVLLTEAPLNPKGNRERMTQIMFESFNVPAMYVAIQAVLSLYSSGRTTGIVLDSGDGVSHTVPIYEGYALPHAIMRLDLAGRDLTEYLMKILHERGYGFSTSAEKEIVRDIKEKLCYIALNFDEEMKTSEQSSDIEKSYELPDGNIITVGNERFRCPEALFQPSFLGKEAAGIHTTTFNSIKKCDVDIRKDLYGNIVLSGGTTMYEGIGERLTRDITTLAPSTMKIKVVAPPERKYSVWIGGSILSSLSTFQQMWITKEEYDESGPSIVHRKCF

[43] = target: UniProt C0H5J6
[44] = target: UniProt Q8IM27
[45] = target: UniProt Q8I5D4
[46] = target: UniProt Q8I5H7
[47] = target: UniProt C0H5I7
[48] = target: UniProt Q8IAY9
[49] = target: UniProt Q8IBV7
[50] = target: UniProt Q7KQK6
[51] = target: UniProt O77376

Measured: IC50
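Also: native unpurified kinases from lysate captured on beads bearing immobilized kinase inhibitors, with bead-bound kinases quantified by mass spectrometry across compound doses.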

O=c1[nH]c2ccc(Cl)cc2c(NC2CN3CCC2CC3)c1-c1nc2ccccc2[nH]1 (stereo unspecified) [CHIR-124]
7.85 µM: [45]
0.25 µM: [12]
> 20 µM: all other assays above
